What was measured:
Test in all cases: relative viability (nuclei count vs DMSO), 5 days (fraction); higher = more cells survive
BEN = tested on: BEN
Summary of the method: (§1)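 Lung cancer cell lines were pin-tool dosed in 1536-well plates on the day after seeding, with either a lone drug or a fixed anchor-drug dose plus five library-drug doses (not always all listed) in √10 steps. Nuclei were counted on 4× images after 5 days. Relative viability is the ratio of treated-well to vehicle-well nuclei counts, with each value a median of duplicate plates.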

NCI-H1792 = tested on: NCI-H1792
Summary of the method: as §1

NCI-H647 = tested on: NCI-H647
Summary of the method: as §1

EKVX = tested on: EKVX
Summary of the method: as §1

NCI-H661 = tested on: NCI-H661
Summary of the method: as §1

NCI-H596 = tested on: NCI-H596
Summary of the method: as §1

NCI-H1734 = tested on: NCI-H1734
Summary of the method: as §1

NCI-H2405 = tested on: NCI-H2405
Summary of the method: as §1

NCI-H1437 = tested on: NCI-H1437
Summary of the method: as §1

HCC-366 = tested on: HCC-366
Summary of the method: as §1

HCC-44 = tested on: HCC-44
Summary of the method: as §1

HARA = tested on: HARA
Summary of the method: as §1

NCI-H1355 = tested on: NCI-H1355
Summary of the method: as §1

LOU-NH91 = tested on: LOU-NH91
Summary of the method: as §1

SK-LU-1 = tested on: SK-LU-1
Summary of the method: as §1

LC-2-ad = tested on: LC-2-ad
Summary of the method: as §1

HCC-827 = tested on: HCC-827
Summary of the method: as §1

NCI-H2009 = tested on: NCI-H2009
Summary of the method: as §1

NCI-H2228 = tested on: NCI-H2228
Summary of the method: as §1

NCI-H2087 = tested on: NCI-H2087
Summary of the method: as §1

Compound: COc1cc(N2CCC(C(N)=O)CC2)ccc1Nc1nc(N)c(Cl)c(Nc2ccccc2S(=O)(=O)C(C)C)n1 [HG-5-88-01] + CC(C)C[C@H](NC(=O)[C@H](Cc1ccccc1)NC(=O)c1cnccn1)B(O)O [Bortezomib] (partner 0.002 µM)
- relative viability (BEN; first compound 0.04 µM): 0.652
- relative viability (BEN; first compound 0.1265 µM): 0.752
- relative viability (BEN; first compound 0.4 µM): 0.714
- relative viability (BEN; first compound 1.265 µM): 0.841
- relative viability (BEN; first compound 4 µM): 0.791
- relative viability (NCI-H1792; first compound 0.04 µM): 0.975
- relative viability (NCI-H1792; first compound 0.1265 µM): 0.929
- relative viability (NCI-H1792; first compound 0.4 µM): 0.941
- relative viability (NCI-H1792; first compound 1.265 µM): 0.817
- relative viability (NCI-H1792; first compound 4 µM): 0.958
- relative viability (NCI-H647; first compound 0.04 µM): 1.02
- relative viability (NCI-H647; first compound 0.1265 µM): 0.826
- relative viability (NCI-H647; first compound 1.265 µM): 1.07
- relative viability (NCI-H647; first compound 4 µM): 0.967
- relative viability (EKVX; first compound 0.04 µM): 1.09
- relative viability (EKVX; first compound 0.1265 µM): 1.02
- relative viability (EKVX; first compound 0.4 µM): 1.02
- relative viability (EKVX; first compound 4 µM): 0.854
- relative viability (NCI-H661; first compound 0.04 µM): 0.838
- relative viability (NCI-H661; first compound 0.1265 µM): 0.878
- relative viability (NCI-H661; first compound 0.4 µM): 0.726
- relative viability (NCI-H661; first compound 4 µM): 0.894
- relative viability (NCI-H596; first compound 0.04 µM): 1.25
- relative viability (NCI-H596; first compound 0.1265 µM): 0.948
- relative viability (NCI-H596; first compound 0.4 µM): 1
- relative viability (NCI-H596; first compound 1.265 µM): 0.964
- relative viability (NCI-H596; first compound 4 µM): 1.02
- relative viability (NCI-H1734; first compound 0.04 µM): 0.899
- relative viability (NCI-H1734; first compound 0.1265 µM): 0.975
- relative viability (NCI-H1734; first compound 0.4 µM): 0.958
- relative viability (NCI-H1734; first compound 1.265 µM): 0.868
- relative viability (NCI-H1734; first compound 4 µM): 0.83
- relative viability (NCI-H2405; first compound 0.04 µM): 1.01
- relative viability (NCI-H2405; first compound 0.1265 µM): 0.977
- relative viability (NCI-H2405; first compound 0.4 µM): 0.929
- relative viability (NCI-H2405; first compound 1.265 µM): 0.933
- relative viability (NCI-H2405; first compound 4 µM): 0.946
- relative viability (NCI-H1437; first compound 0.04 µM): 0.491
- relative viability (NCI-H1437; first compound 0.1265 µM): 0.477
- relative viability (NCI-H1437; first compound 0.4 µM): 0.539
- relative viability (NCI-H1437; first compound 1.265 µM): 0.401
- relative viability (NCI-H1437; first compound 4 µM): 0.263
- relative viability (HCC-366; first compound 0.04 µM): 1.11
- relative viability (HCC-366; first compound 0.1265 µM): 1.09
- relative viability (HCC-366; first compound 0.4 µM): 0.972
- relative viability (HCC-366; first compound 1.265 µM): 1.04
- relative viability (HCC-366; first compound 4 µM): 1.24
- relative viability (HCC-44; first compound 0.04 µM): 0.901
- relative viability (HCC-44; first compound 0.1265 µM): 0.868
- relative viability (HCC-44; first compound 0.4 µM): 0.679
- relative viability (HCC-44; first compound 1.265 µM): 0.832
- relative viability (HCC-44; first compound 4 µM): 0.754
- relative viability (HARA; first compound 0.04 µM): 1.16
- relative viability (HARA; first compound 0.1265 µM): 1.03
- relative viability (HARA; first compound 0.4 µM): 1.07
- relative viability (HARA; first compound 1.265 µM): 1.02
- relative viability (HARA; first compound 4 µM): 1.02
- relative viability (NCI-H1355; first compound 0.04 µM): 1.37
- relative viability (NCI-H1355; first compound 0.1265 µM): 1.37
- relative viability (NCI-H1355; first compound 0.4 µM): 1.21
- relative viability (NCI-H1355; first compound 1.265 µM): 1.14
- relative viability (NCI-H1355; first compound 4 µM): 0.96
- relative viability (LOU-NH91; first compound 0.04 µM): 0.54
- relative viability (LOU-NH91; first compound 0.1265 µM): 0.53
- relative viability (LOU-NH91; first compound 0.4 µM): 0.472
- relative viability (LOU-NH91; first compound 1.265 µM): 0.48
- relative viability (LOU-NH91; first compound 4 µM): 0.48
- relative viability (SK-LU-1; first compound 0.04 µM): 0.976
- relative viability (SK-LU-1; first compound 0.1265 µM): 1.2
- relative viability (SK-LU-1; first compound 0.4 µM): 1.07
- relative viability (SK-LU-1; first compound 1.265 µM): 0.973
- relative viability (SK-LU-1; first compound 4 µM): 0.336
- relative viability (LC-2-ad; first compound 0.04 µM): 1.06
- relative viability (LC-2-ad; first compound 0.1265 µM): 1.04
- relative viability (LC-2-ad; first compound 0.4 µM): 0.945
- relative viability (LC-2-ad; first compound 1.265 µM): 0.973
- relative viability (LC-2-ad; first compound 4 µM): 0.819
- relative viability (HCC-827; first compound 0.04 µM): 1.07
- relative viability (HCC-827; first compound 0.1265 µM): 1.05
- relative viability (HCC-827; first compound 0.4 µM): 1.06
- relative viability (HCC-827; first compound 1.265 µM): 1.14
- relative viability (HCC-827; first compound 4 µM): 0.472
- relative viability (NCI-H2009; first compound 0.04 µM): 0.99
- relative viability (NCI-H2009; first compound 0.1265 µM): 1.19
- relative viability (NCI-H2009; first compound 0.4 µM): 0.845
- relative viability (NCI-H2009; first compound 1.265 µM): 0.986
- relative viability (NCI-H2009; first compound 4 µM): 0.765
- relative viability (NCI-H2228; first compound 0.04 µM): 0.363
- relative viability (NCI-H2228; first compound 0.1265 µM): 0.478
- relative viability (NCI-H2228; first compound 0.4 µM): 0.292
- relative viability (NCI-H2228; first compound 1.265 µM): 0.255
- relative viability (NCI-H2228; first compound 4 µM): 0.345
- relative viability (NCI-H2087; first compound 0.04 µM): 0.818
- relative viability (NCI-H2087; first compound 0.1265 µM): 0.692
- relative viability (NCI-H2087; first compound 0.4 µM): 0.713
- relative viability (NCI-H2087; first compound 1.265 µM): 1.01
- relative viability (NCI-H2087; first compound 4 µM): 0.934
